This is an account of results in ChEMBL document CHEMBL3856195, “2,3,4-Trihydroxybenzyl-hydrazide analogues as novel potent coxsackievirus B3 3C protease inhibitors” (Eur J Med Chem, 2016).

By pIC50 is commonly meant the negative decadic logarithm of the IC50, by convention in mol/L. By inhibition is commonly meant the share of the control response that was lost under treatment. In general, Papp refers to the rate of passage across a membrane or cell layer, normalised by area and donor concentration. A word on the pKi: it is the Ki on a negative log10 scale, so that one unit is a factor of ten.

pIC50, pKi: −log10 of the molar value. Activity calls are given as the source filed them. No cut-off for these calls is given here.

The target of series [1] is T1, Genome polyprotein (Coxsackievirus B3 (strain Nancy), UniProt P03313). Kind of series: Inhibition of recombinant Coxsackievirus B3 3C protease expressed in Escherichia coli BL21 (DE3) preincubated for 5 mins followed by addition of NMA-EALFQGPPVK-DNP-rrr-NH2 as substrate measured up to 2 hrs by FRET-based enzyme assay.
T1 sequence (P03313 1541-1723 limits assumed): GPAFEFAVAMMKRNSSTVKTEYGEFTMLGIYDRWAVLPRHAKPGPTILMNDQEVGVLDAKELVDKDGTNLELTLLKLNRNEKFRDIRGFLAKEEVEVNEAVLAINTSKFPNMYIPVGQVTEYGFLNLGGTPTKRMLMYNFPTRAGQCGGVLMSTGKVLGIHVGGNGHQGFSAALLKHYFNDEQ
The nature of series [2]: Cytotoxicity against human HeLa cells assessed as reduction in cell viability at 10 and 100 uM by CCK8 assay. In kind it is toxicity, cell-based. For orientation: Tetrazolium assays rely on reduction of a dye to a coloured formazan, in cell work by metabolically active cells.
In the next series the test system is Coxsackievirus B3. The series is described as follows: Antiviral activity against Coxsackievirus B3 infected in human HeLa cells at 10 uM measured after 20 to 24 hrs by CCK8 assay. The format is functional. The following applies: Enterovirus B.
Series [3] in a line: Apparent permeability in MDCK cells at 50 uM and measured after 30 mins by LC-MS/MS analysis. The format is ADME, cell-based, Canis lupus familiaris. As to conditions: dog.
Series [4] has as its target T1, Genome polyprotein. Kind of series: Inhibition of recombinant Coxsackievirus B3 3C protease expressed in Escherichia coli BL21 (DE3) preincubated for 5 mins followed by addition of NMA-EALFQGPPVK-DNP-rrr-NH2 as substrate measured every 10 mins for 2 hrs by FRET-based enzyme assay.
In series [5] the target is T1, Genome polyprotein. The series is described as follows: Inhibition of recombinant Coxsackievirus B3 C-terminal 6His-tagged 3C protease expressed in Escherichia coli BL21 preincubated for 20 mins followed by addition of fluorogenic peptide as substrate by Cheng-Prusoff equation analysis.
Series [6] concerns the target Genome polyprotein (Coxsackievirus B3 (strain Nancy)) (UniProt P03313). The series is described as follows: Non-competitive inhibition of recombinant Coxsackievirus B3 3C protease expressed in Escherichia coli BL21 (DE3) preincubated with protein followed by addition of NMA-EALFQGPPVK-DNP-rrr-NH2 as substrate measured every 5 mins for 2 hrs by Michaelis-Menten plot analysis.

Series [7] has as its target T1, Genome polyprotein. Kind of series: Competitive inhibition of recombinant Coxsackievirus B3 3C protease expressed in Escherichia coli BL21 (DE3) preincubated with protein followed by addition of NMA-EALFQGPPVK-DNP-rrr-NH2 as substrate measured every 5 mins for 2 hrs by Dixon plot analysis.
Series [8] concerns the target Genome polyprotein (Coxsackievirus B3 (strain Nancy)) (UniProt P03313). The series is described as follows: Mixed-type inhibition of recombinant Coxsackievirus B3 3C protease expressed in Escherichia coli BL21 (DE3) preincubated with protein followed by addition of NMA-EALFQGPPVK-DNP-rrr-NH2 as substrate measured every 5 mins for 2 hrs by Lineweaver-Burk plot analysis.

Genome polyprotein (Coxsackievirus B3 (strain Nancy)), sequence (P03313 whole entry): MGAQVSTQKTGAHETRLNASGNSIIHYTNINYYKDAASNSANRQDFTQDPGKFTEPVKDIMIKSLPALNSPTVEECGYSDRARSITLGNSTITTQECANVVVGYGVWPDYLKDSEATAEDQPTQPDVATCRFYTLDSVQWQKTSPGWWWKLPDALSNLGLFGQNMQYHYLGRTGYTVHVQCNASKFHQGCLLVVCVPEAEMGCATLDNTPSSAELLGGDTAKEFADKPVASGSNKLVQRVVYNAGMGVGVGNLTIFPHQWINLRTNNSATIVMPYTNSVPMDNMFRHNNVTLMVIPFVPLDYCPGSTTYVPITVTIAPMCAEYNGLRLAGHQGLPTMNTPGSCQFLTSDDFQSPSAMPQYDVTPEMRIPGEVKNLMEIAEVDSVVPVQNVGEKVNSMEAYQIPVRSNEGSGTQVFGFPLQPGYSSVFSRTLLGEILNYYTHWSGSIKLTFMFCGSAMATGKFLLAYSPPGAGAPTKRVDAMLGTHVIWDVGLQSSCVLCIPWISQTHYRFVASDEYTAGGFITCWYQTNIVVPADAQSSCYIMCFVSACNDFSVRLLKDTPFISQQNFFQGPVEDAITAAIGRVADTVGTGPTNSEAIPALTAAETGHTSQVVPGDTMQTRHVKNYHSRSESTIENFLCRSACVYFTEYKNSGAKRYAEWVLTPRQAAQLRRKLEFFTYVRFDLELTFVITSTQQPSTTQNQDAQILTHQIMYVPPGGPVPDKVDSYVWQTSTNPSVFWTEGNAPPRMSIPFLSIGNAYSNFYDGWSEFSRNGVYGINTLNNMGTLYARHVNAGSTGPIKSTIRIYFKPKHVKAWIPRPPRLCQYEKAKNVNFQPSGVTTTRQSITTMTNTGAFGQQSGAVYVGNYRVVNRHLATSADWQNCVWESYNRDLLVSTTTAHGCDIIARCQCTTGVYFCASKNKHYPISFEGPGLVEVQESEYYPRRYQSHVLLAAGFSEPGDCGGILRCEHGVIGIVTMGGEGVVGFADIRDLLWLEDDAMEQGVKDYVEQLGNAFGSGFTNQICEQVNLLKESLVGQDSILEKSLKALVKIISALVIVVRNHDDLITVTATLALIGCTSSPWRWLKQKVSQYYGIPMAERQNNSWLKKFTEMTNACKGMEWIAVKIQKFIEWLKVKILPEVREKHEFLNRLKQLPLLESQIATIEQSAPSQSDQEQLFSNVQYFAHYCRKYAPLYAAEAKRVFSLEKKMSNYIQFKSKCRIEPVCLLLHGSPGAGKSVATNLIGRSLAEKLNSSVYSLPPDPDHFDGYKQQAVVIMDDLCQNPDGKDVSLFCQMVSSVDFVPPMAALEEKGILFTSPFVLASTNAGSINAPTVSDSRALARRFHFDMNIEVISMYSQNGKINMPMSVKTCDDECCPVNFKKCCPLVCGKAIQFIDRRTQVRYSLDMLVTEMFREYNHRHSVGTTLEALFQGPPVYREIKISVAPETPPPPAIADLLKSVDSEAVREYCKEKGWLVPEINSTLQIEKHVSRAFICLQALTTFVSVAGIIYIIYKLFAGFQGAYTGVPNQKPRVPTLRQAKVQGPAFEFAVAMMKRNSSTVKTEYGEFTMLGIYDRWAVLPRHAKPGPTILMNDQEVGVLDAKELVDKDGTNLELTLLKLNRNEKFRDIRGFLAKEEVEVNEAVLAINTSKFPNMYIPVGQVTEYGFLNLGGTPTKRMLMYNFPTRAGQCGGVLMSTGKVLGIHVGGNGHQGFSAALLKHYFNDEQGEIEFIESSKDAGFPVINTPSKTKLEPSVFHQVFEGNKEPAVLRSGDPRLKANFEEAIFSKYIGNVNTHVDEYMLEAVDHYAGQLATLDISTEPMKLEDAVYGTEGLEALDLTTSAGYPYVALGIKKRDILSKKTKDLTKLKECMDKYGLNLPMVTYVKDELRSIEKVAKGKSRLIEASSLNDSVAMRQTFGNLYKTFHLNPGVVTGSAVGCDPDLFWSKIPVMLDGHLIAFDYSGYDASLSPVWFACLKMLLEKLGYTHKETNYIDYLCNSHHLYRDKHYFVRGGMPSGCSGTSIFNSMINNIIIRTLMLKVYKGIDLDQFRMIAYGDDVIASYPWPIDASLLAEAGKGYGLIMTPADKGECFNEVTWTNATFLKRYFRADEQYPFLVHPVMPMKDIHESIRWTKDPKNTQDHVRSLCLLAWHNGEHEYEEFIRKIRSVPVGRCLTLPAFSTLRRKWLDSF

Take `O=C(N/N=C/c1c(O)cc(O)cc1O)c1ccccc1`: the pIC50 on Genome polyprotein [1] was 5.97. For `O=C(N/N=C/c1ccc(O)c(O)c1O)c1ccc(O)cc1`, the pIC50 at Genome polyprotein [1] was 6.49. The Activity result in series [2] is reported as “Non-Toxic”. On to `O=C(NNCc1ccc(O)c(O)c1O)c1ccc(O)cc1`, for which the pIC50 at Genome polyprotein [1] is 6.77. Besides, the Activity result in series [2] is given as “Non-Toxic”. Turning to `O=C(N/N=C/c1ccccc1)c1ccccc1`, the pIC50 at Genome polyprotein [1] was less than 4.30. For the molecule `O=C(CCCc1ccc(O)cc1)N/N=C/c1ccc(O)c(O)c1O`, the pIC50 at Genome polyprotein [1] was 6.80.

`CCCCC(=O)Oc1c(O)ccc(CNNC(=O)CCCCc2ccc(O)cc2)c1O`: the pIC50 at Genome polyprotein [1] is 6.06. In series [2], the Activity entry is recorded as “Non-Toxic”. This molecule yielded an inhibition at 10 µM in the series on Coxsackievirus B3 of 43%. In the case of `O=C(N/N=C/c1ccc(O)c(O)c1O)c1ccc(Br)cc1`, the pIC50 at Genome polyprotein [1] is 6.34. Turning to `Cc1cc(C(=O)N[C@H](C(=O)N[C@@H](Cc2ccc(F)cc2)C(=O)N/N=C/c2ccc(O)c(O)c2O)C(C)C)no1`, the negative logarithm of the IC50 (pIC50) on Genome polyprotein [1] is 6.21. Still for that read-out and setting: the same measure for `O=C(CCc1ccccc1)NNCc1ccc(O)c(O)c1O`: 6.49; for `CS(=O)(=O)c1ccc(C(=O)N/N=C/c2ccc(O)c(O)c2O)cc1`: 6.05. In the case of `CS(=O)(=O)c1ccc(/C=N/NC(=O)c2ccccc2)cc1`, the pIC50 on Genome polyprotein [1] was less than 4.30.

Regarding `CCCCC(=O)Oc1c(O)ccc(/C=N/NC(=O)CCCCc2ccc(O)cc2)c1O`, the pIC50 at Genome polyprotein [1] was 6.01. Moreover, the Activity entry in [2] is “Non-Toxic”. Besides, the inhibition at 10 µM with Coxsackievirus B3 was 62%. Further, the Papp at 0.5 h, 50 µM in series [3] worked out at 25 ×10⁻⁶ cm/s. In the case of `O=C(NNCc1ccc(O)c(O)c1O)c1ccc(F)cc1`, at Genome polyprotein [1], the pIC50 was 6.19.

Regarding `CS(=O)(=O)c1ccc(C(=O)NNCc2ccc(O)c(O)c2O)cc1`, the pIC50 on Genome polyprotein [1] is 6.11. With `O=C(CCCc1ccc(F)cc1)N/N=C/c1ccc(O)c(O)c1O`, at Genome polyprotein [1], the pIC50 is 6.19. Turning to `O=C(CCCCc1ccc(O)cc1)N/N=C/c1ccc(O)c(O)c1O`, the pIC50 at Genome polyprotein [1] is 6.96. For the same molecule, the Activity entry in series [2] is given as “Non-Toxic”. For the same molecule, the Papp at 0.5 h, 50 µM in series [3] was 11 ×10⁻⁶ cm/s. In the case of `O=C(N/N=C/c1ccc(O)cc1O)c1ccccc1`, the pIC50 at Genome polyprotein [1] is less than 4.30.

`O=C(CCCCc1ccccc1)N/N=C/c1ccc(O)c(O)c1O`: the pIC50 on Genome polyprotein [1] is 6.36. Take `O=C(CCCc1ccccc1)NNCc1ccc(O)c(O)c1O`: on Genome polyprotein [1], the pIC50 is 6.47.

In the case of `O=C(N/N=C/c1ccc(O)cc1)c1ccccc1`, the pIC50 at Genome polyprotein [1] is less than 4.30. In the case of `O=C(CCCCc1ccc(F)cc1)NNCc1ccc(O)c(O)c1O`, the pIC50 on Genome polyprotein [1] was 6.64. Consider `NC(CO)C(=O)N/N=C/c1ccc(O)c(O)c1O` (stereo not drawn), for which the pIC50 on Genome polyprotein [4] was 5.57.

Consider `O=C(NNCc1ccc(O)c(O)c1O)c1ccc(Br)cc1`, for which, at Genome polyprotein [1], the pIC50 is 6.68. Consider `O=C(N/N=C/c1ccc(O)c(O)c1O)c1ccc(Cl)cc1`, for which, on Genome polyprotein [1], the pIC50 was 6.23. In the case of `CC(C)(C)OC(=O)NC(Cc1ccc(O)cc1)C(=O)N/N=C/c1ccc(O)c(O)c1O` (stereo not drawn), the pIC50 on Genome polyprotein [1] was 6.27. For the molecule `O=C(CCCc1ccccc1)N/N=C/c1ccc(O)c(O)c1O`, the pIC50 on Genome polyprotein [1] was 6.15. With `O=C(Cc1ccc(O)cc1)N/N=C/c1ccc(O)c(O)c1O`, the pIC50 on Genome polyprotein [1] was 6.74. As for `O=C(CCCCc1ccc(F)cc1)N/N=C/c1ccc(O)c(O)c1O`, the pIC50 on Genome polyprotein [1] is 6.33. As for `NC(CO)C(=O)NNCc1ccc(O)c(O)c1O` (stereo not drawn) [BENSERAZIDE], at Genome polyprotein [4], the pIC50 is 5.62. For the molecule `O=C(CCc1ccc(F)cc1)N/N=C/c1ccc(O)c(O)c1O`, the pIC50 at Genome polyprotein [1] is 6.24.

Regarding `O=C(N/N=C/c1cccc(O)c1O)c1ccccc1`, the pIC50 on Genome polyprotein [1] was less than 4.30.

With `CCCCC(=O)Oc1c(O)ccc(CNNC(=O)c2ccc(O)cc2)c1O`, on Genome polyprotein [1], the pIC50 is 5.99. The same molecule displayed an inhibition at 10 µM in the series with Coxsackievirus B3 of 38%. As for `CC(C)(C)OC(=O)NC(Cc1ccc(O)cc1)C(=O)NNCc1ccc(O)c(O)c1O` (stereo not drawn), the pIC50 at Genome polyprotein [1] was 6.57. For `O=C(Cc1ccccc1)N/N=C/c1ccc(O)c(O)c1O`, the pIC50 at Genome polyprotein [1] is 6.12.

Turning to `O=C(N/N=C/c1cc(O)cc(O)c1)c1ccccc1`, the pIC50 on Genome polyprotein [1] is less than 4.30. Take `O=C(CCc1ccccc1)N/N=C/c1ccc(O)c(O)c1O`: the pIC50 at Genome polyprotein [1] was 6.16.

As to `CS(=O)(=O)c1cccc(/C=N/NC(=O)c2ccccc2)c1`, at Genome polyprotein [1], the pIC50 was less than 4.30. As for `O=C(N/N=C/c1cccc(O)c1)c1ccccc1`, the pIC50 on Genome polyprotein [1] was less than 4.30.

For the molecule `Cc1cc(C(=O)N[C@H](C(=O)N[C@@H](Cc2ccc(F)cc2)C(=O)NNCc2ccc(O)c(O)c2O)C(C)C)no1`, the negative-log IC50 (pIC50) at Genome polyprotein [1] is 6.64. Same read-out and setting: in the case of `O=C(NNCc1c(O)cc(O)cc1O)c1ccccc1` it was 6.11; in that of `O=C(Cc1ccc(O)cc1)NNCc1ccc(O)c(O)c1O`, 6.96.

Consider `O=C(Cc1ccc(F)cc1)NNCc1ccc(O)c(O)c1O`, for which the pIC50 on Genome polyprotein [1] is 6.47. On to `CC(C)(C)OC(=O)NC(Cc1ccc(F)cc1)C(=O)NNCc1ccc(O)c(O)c1O` (stereo not drawn), for which the pIC50 on Genome polyprotein [1] was 6.11. Still for that read-out and setting: in the case of `O=C(CCc1ccc(O)cc1)NNCc1ccc(O)c(O)c1O` it was 7.10. For `CCCCC(=O)Oc1c(O)ccc(/C=N/NC(=O)c2ccc(O)cc2)c1O`, on Genome polyprotein [1], the pIC50 was 5.92. For the same molecule, the Activity result in series [2] is on record as “Non-Toxic”. This molecule also had an inhibition at 10 µM with Coxsackievirus B3 of 42%.

As for `O=C(Cc1ccccc1)NNCc1ccc(O)c(O)c1O`, at Genome polyprotein [1], the pIC50 was 6.39.

Regarding `O=C(N/N=C/c1cc(O)ccc1O)c1ccccc1`, the pIC50 on Genome polyprotein [1] is 5.26. Consider `O=C(N/N=C/c1ccc(O)c(O)c1O)c1ccccc1`, for which the pIC50 at Genome polyprotein [1] was 6.01. Same read-out and setting: the same measure for `O=C(NNCc1ccc(O)c(O)c1O)c1ccccc1`: 6.19; for `O=C(Cc1ccc(F)cc1)N/N=C/c1ccc(O)c(O)c1O`: 6.18. Turning to `CC(=O)/C=C/[C@H](C[C@@H]1CNCC1=O)NC(=O)[C@H](CC(C)C)NC(=O)[C@H](CNC(=O)C(C)(C)C)NC(=O)OCc1ccccc1`, at Genome polyprotein [5], the pKi is 6.10. `O=C(CCCc1ccc(O)cc1)NNCc1ccc(O)c(O)c1O`: the pIC50 on Genome polyprotein [1] was 7.00. Regarding `O=C(CCc1ccc(O)cc1)N/N=C/c1ccc(O)c(O)c1O`, on Genome polyprotein [1], the pIC50 is 6.92. On the same count and under the same terms, in the case of `O=C(N/N=C/c1ccccc1O)c1ccccc1` [SALICYLALDEHYDE BENZOYL HYDRAZONE] it was less than 4.30; in that of `O=C(CCCc1ccc(F)cc1)NNCc1ccc(O)c(O)c1O`, 6.40. Turning to `O=C(CCCCc1ccc(O)cc1)NNCc1ccc(O)c(O)c1O`, the pIC50 at Genome polyprotein [1] is 7.15. Also, the Activity entry in series [2] is recorded as “Non-Toxic”. For the same molecule, the inhibition entry in series [6] is “Dose-dependent effect”. Moreover, the pKi on Genome polyprotein [7] is 6.49. Besides, the inhibition entry in series [8] was “Active”. For the molecule `CC(C)(C)OC(=O)NC(Cc1ccc(F)cc1)C(=O)N/N=C/c1ccc(O)c(O)c1O` (stereo not drawn), the pIC50 at Genome polyprotein [1] was 6.05. Regarding `O=C(N/N=C/c1ccc(O)c(O)c1)c1ccccc1`, the negative-log IC50 (pIC50) at Genome polyprotein [1] is less than 4.30. Turning to `O=C(N/N=C/c1ccc(O)c(O)c1O)c1ccc(F)cc1`, at Genome polyprotein [1], the pIC50 was 6.06. For the molecule `O=C(CCCCc1ccccc1)NNCc1ccc(O)c(O)c1O`, the pIC50 on Genome polyprotein [1] was 6.72. As to `O=C(CCc1ccc(F)cc1)NNCc1ccc(O)c(O)c1O`, the pIC50 on Genome polyprotein [1] is 6.70. Consider `O=C(NNCc1ccc(O)c(O)c1O)c1ccc(Cl)cc1`, for which the pIC50 on Genome polyprotein [1] is 6.37.
